According to ChEMBL document CHEMBL4190378, “Synthesis and evaluation of new 2-chloro-4-aminopyrimidine and 2,6-dimethyl-4-aminopyrimidine derivatives as tubulin polymerization inhibitors” (Bioorg Med Chem Lett, 2018):

What was measured:
[1] = tested on: A549; assay: Antiproliferative activity against human A549 cells incubated for 48 hrs by MTT assay; assay type: functional, cell-based; conditions: A549, 48 h
[2] = tested on: HeLa; assay: Antiproliferative activity against human HeLa cells incubated for 48 hrs by MTT assay; assay type: functional, cell-based
[3] = tested on: HepG2; assay: Antiproliferative activity against human HepG2 cells incubated for 48 hrs by MTT assay; assay type: functional, cell-based; conditions: HepG2, 48 h
[4] = tested on: MDA-MB-231; assay: Antiproliferative activity against human MDA-MB-231 cells incubated for 48 hrs by MTT assay; assay type: functional, cell-based; conditions: MDA-MB-231, 48 h
[5] = tested on: HCT-116; assay: Antiproliferative activity against human HCT116 cells incubated for 48 hrs by MTT assay; assay type: functional, cell-based; conditions: HCT-116, 48 h
[6] = Inhibition of porcine brain tubulin polymerization measured every 60 secs for 90 mins by DAPI dye based fluorescence assay; set-up: species or system Sus scrofa

SMILES	IC50 [1] [µM]	IC50 [2] [µM]	IC50 [3] [µM]	IC50 [4] [µM]	IC50 [5] [µM]	IC50 [6] [µM]
COc1ccc(N(C)c2ccnc(Cl)n2)cc1OCCCBr	0.862	0.307	1.24	1.28	1.97	–
COc1ccc(N(C)c2nc(C)nc3ccccc23)cc1 [VERUBULIN]	0.004	0.006	–	–	0.005	2.74
COc1ccc(N(C)c2ccnc(Cl)n2)cc1OCCCCBr	0.591	0.307	0.168	0.992	1.14	–
Cc1cc(N(C)c2ccc([Se]C#N)cc2)nc(C)n1	0.207	0.252	0.155	0.614	0.245	–
COc1ccc(N(C)c2cc(C)nc(C)n2)cc1Cl	0.78	0.316	0.787	1.9	1.19	–
COc1ccc(N(C)c2ccnc(Cl)n2)cc1	0.611	0.917	2.12	2.81	1.46	–
COc1ccc(N(C)c2ccnc(Cl)n2)cc1OCCBr	4.64	3.31	7.72	6.62	5.67	–
C[Se]c1ccc(N(C)c2cc(C)nc(C)n2)cc1	0.218	0.138	0.198	0.321	0.465	–
COc1ccc(N(C)c2ccnc(Cl)n2)cc1OCCCCC[Se]C#N	> 10	> 10	> 10	> 10	> 10	–
COc1ccc(N(C)c2cc(C)nc(C)n2)cc1F	0.632	0.471	2.06	2.79	0.584	–
COc1ccc(N(C)c2cc(C)nc(C)n2)cc1[N+](=O)[O-]	3.27	3.72	2.98	3.44	4.67	–
COc1ccc(N(C)c2ccnc(Cl)n2)cc1OCCC[Se]C#N	3.71	4.71	5.15	1.49	3.92	–
COc1ccc(N(C)c2ccnc(Cl)n2)cc1OCCCC[Se]C#N	> 10	> 10	> 10	> 10	> 10	–
COc1ccc(N(C)c2cc(C)nc(C)n2)cc1	0.277	0.322	0.824	3.65	1.32	–
COc1ccc(N(C)c2ccnc(Cl)n2)cc1[N+](=O)[O-]	3.78	4.73	6.12	8.12	4.7	–
COc1ccc(N(C)c2ccnc(Cl)n2)cc1F	0.651	0.241	0.844	1.28	0.914	–
COc1ccc(N(C)c2ccnc(Cl)n2)cc1O	0.381	0.096	0.464	0.833	0.422	6.11
COc1ccc(N(C)c2ccnc(Cl)n2)cc1OCCCCCBr	9.71	7.08	> 10	> 10	> 10	–
COc1ccc(N(C)c2ccnc(Cl)n2)cc1OCC[Se]C#N	0.463	0.436	1.67	2.75	1.22	–
COc1ccc(N(C)c2ccnc(Cl)n2)cc1Cl	0.621	0.517	2.63	1.38	1.17	–
